In patent US20110003753A1, “COMPOSITIONS AND METHODS FOR DISRUPTING THE FUNCTION OF THE TRANSCRIPTIONAL REPRESSOR COMPONENT Sin3A-PAH2 DOMAIN TO INDUCE DIFFERENTIATION AND GROWTH INHIBITION IN BREAST CANCER” (SAMUEL WAXMAN CANCER RESEARCH FOUNDATION, priority 2009, published 2011):

Legend:
[1] = tested on: MDA-MB-231 cells transfected with SID; experiment: Proliferation assay (MTT) for ERα and RAR activation; assay type: cell-based, human; conditions: SID-transfected MDA-MB-231; for growth inhibition (MTT): daily for 48 hrs
From the text: FIG. 5: A. Schematic representations of the promoters and 5′ untranslated regions (5′UTR) of CDH1 and ESR1 used in this study. Positions of CpG dinucleotides are indicated by grey ticks and the transcription initiation sites are represented by black arrows. The relative positions of primer pairs used to PCR amplify immunoprecipitated DNA from ChIP analysis and bisulfite-modified DNA are also indicated. B. H3K4me3 levels on the CDH1 and ESR1 promoter regions increase dramatically in response to SID. ChIP analysis was performed with chromatin from wild type or stably transfected MDA-MB-231 cells as indicated. Cross-linked protein-DNA complexes were immunoprecipitated with an anti-trimethyl H3K4 antibody and amplified by real-time PCR. Results are shown as percentage of input DNA. The RPL30 housekeeping gene is shown as a control. C. Real-time PCR analysis of CDH1 and ESR1 gene expression. Values are shown as molecules per μg total RNA and were derived from the ΔCt between the GAPDH housekeeping gene and the gene of interest. The amount of GAPDH molecules per μg total RNA was determined by absolute quantification. D. The CDH1 and ESR1 promoters undergo demethylation in response to SID. Following bisulfite modification of wild type or stably transfected MDA-MB-231 cells as indicated, specifically amplified PCR products were sequenced using primers corresponding to the promoter/5′UTR of ESR1. Positions of CpG dinucleotides are indicated by grey ticks and the transcription initiation sites are indicated by black arrows. […] Unmethylated CpGs are by represented open circles. CpG positions are shown relative to transcription initiation site. E. Functional assays for ERα and RAR activation. […]
For activation of RARs […] ATRA (all-trans-retinoic acid, pan-RAR agonist) or 100 nM Am580 (retinoibeozoic acid, RARα-specific agonist) was used daily for 48 hours. Cell proliferation was determined by MTT (Thiazolyl Blue Tetrazolium Bromide) colorimetric assay following standard protocols (Invitrogen). The optical density (OD) of reduced MTT was assessed at 570 nm versus 620/630 nm after 4 hr at 37° C. […]

[2] = biological target: GAL4 DBD-Sin3B (fusion of Sin3B with GAL4 DNA binding domain) (UniProt P04386); experiment: cell-based or functional assay
Chain of GAL4 DBD-Sin3B (fusion of Sin3B with GAL4 DNA binding domain) (P04386 1-147): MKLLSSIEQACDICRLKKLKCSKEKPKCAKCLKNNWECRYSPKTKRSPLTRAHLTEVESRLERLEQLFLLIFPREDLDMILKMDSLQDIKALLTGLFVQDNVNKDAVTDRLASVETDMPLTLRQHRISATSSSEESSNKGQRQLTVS

Sin3B and MAD = experiment: Mammalian two-hybrid assay, GAL4 DBD-Sin3B and VP16AD-MAD in 293T cells; assay type: cell-based; conditions: 15 μM peptide applied to the cell culture medium
From the text: FIG. 2: SID decoy peptide blocks interactions between Sin3 PAH2 and MAD and interferes with recruitment of members of the Sin3 co-repressor complex. A. GST pull-down of MAD by the Sin3A PAH2 domain is blocked by SID peptide. Sin3A PAH2 domain (amino acids 306-450) was expressed in E. coli as a GST fusion and used in a pull down assay for in vitro interaction with 35S-methionine labeled MAD (left panel) or MAD immunoprecipitated from MDA-MB-231 cell lysates (right panel). 25% of input is shown for in vitro translated MAD and 10% of input for immunoprecipitated MAD (input). Assays were performed using 15 μM Tat-SID or Tat-SID^SCR peptide unless otherwise indicated. […] 293T cells were transfected with GAL4^uas×5-Tk-Luc reporter together with mammalian two-hybrid vectors expressing a fusion of Sin3B with GAL4 DNA binding domain (GAL4^DBD) and fusions of MAD and HDAC1 (columns 5-12 and 14-21, respectively) with VP16 activation domain (VP16^AD), as well as SID expression vectors, as indicated. […]
24 hours prior to transfection, 293T cells were plated at 50-60% confluence on 48-well plates. […] 48 hours post-transfection luciferase activity was measured using the Dual Luciferase assay system (Promega) on a Mithras LB940 plate reader (Berthold Technologies). […]

MDA-MB-231 cells = experiment: Three-dimensional morphogenesis assay in Matrigel; assay type: cell-based, human; conditions: 5 μM peptide; Matrigel 3D culture; colonies counted after 10 days of treatment
Procedure: FIG. 3: A. Morphogenesis in 3D cultures in Matrigel. MDA-MB-231 and MMTV-Myc cells expressing SID or the double mutant were cultured in 3D-Matrigel for 14 days. […] B. Reversion of the invasive phenotype of the MDA-MB-231 cells in Matrigel 3D cultures. Upper panel indicates change in numbers of invasive versus non invasive colonies (as indicated in crosshatched and non-crosshatched bars, respectively) in the presence of different concentrations (as indicated) of cell penetrating SID or SID^SCR (scrambled control) peptide. The colonies were counted after 10 days of treatment with a medium containing fresh peptide changed every 24 hours. […] The reduction in invasive phenotype was quantified by counting 5 low magnification fields per well done in triplicates (upper panel). The p value was calculated using the unpaired Student t test.
3D cultures of MDA-MB-231 and MMTV-Myc cells stably transfected with pEGFP-SID, pEGFP-SID2Mut or the parent vector pEGFP-N3 were prepared as described by Debnath et al. (Debnath et al2003). Briefly, […] of growth factor depleted Matrigel (BD Biosciences) was applied on 8-well multichamber slides (BD Biosciences) and incubated at 37° C. for 30 minutes. Once the Matrigel solidified 5×10^3 cells were seeded on top of the gels in assay medium containing 2% Matrigel and 20 ng/ml […]. Growth medium was changed daily for 14 days. Once colony formation was evident, the SID or the scramble control peptide was added to the MDA-MB-231 parental cells in the medium starting at day 3. The morphology of the colonies was determined by confocal microscopy. Induction of apoptosis was determined by staining colonies with activated caspase-3 antibody (BD Transduction Labs) and cell polarization by staining with anti-GM130 antibody (BD Transduction Labs). Cell nuclei were visualized by DAPI (Sigma) staining. […]

**Q.** For `CC1=C(/C=C/C(C)=C/C=C/C(C)=C/C(=O)O)C(C)(C)CCC1` [ATRA, all-trans-retinoic acid], which “growth inhibition (MTT)” value ([1]; 1 uM) is on record?
**A.** significant growth inhibition

**Q.** With `CC/C(=C(\c1ccccc1)c1ccc(OCCN(C)C)cc1)c1ccccc1` [tamoxifen] as the compound, how does the “prevention of E2 growth stimulation (MTT)” value ([1]; 2.5 μM tamoxifen plus E2) read?
**A.** prevention of E2 growth stimulation

**Q.** How did the “growth inhibition (MTT)” value ([1]; 100 nM) turn out when AM580 was run?
**A.** significant growth inhibition

**Q.** Which relative luciferase activity, mammalian two-hybrid with GAL4 DBD-Sin3B and VP16AD-MAD (fold increase) [2] does the source give for “FLAG-tagged SID (6.6 kDa), expressed from pSID (peptide)” here?
**A.** 2

**Q.** How did the relative luciferase activity, mammalian two-hybrid with GAL4 DBD-Sin3B and VP16AD-MAD (fold increase) [2] turn out when “TetR-SID fusion (28.4 kDa), expressed from pTHE” was run?
**A.** 2

**Q.** Which relative luciferase activity, mammalian two-hybrid (GAL4UASx5-Tk-Luc reporter, 293T cells) (fold decrease) [2] does the source give for “VP16AD-MAD (VP16 activation domain as in-frame fusion with full-length MAD) (from UniProt Q05195 1-221)” here?
**A.** 5

**Q.** Which results are given for “YGRKKRRQGGGEQRARRIMERLLEYNMVADL [scrambled control, reference compound]”?
**A.** increase in luciferase activity compared to GAL4 DBD-Sin3B and VP16AD-MAD co-expression (Sin3B and MAD): nor addition of scrambled control peptide led to an increase in luciferase activity; decrease in number of colonies with invasive phenotype (MDA-MB-231 cells): did not exert this effect
